The source of these data is US9504702B2, “Methods of inhibition of protein fucosylation in vivo using fucose analogs” (Seattle Genetics, Inc., priority 2010, dated 2016).

Like-named read-outs stand apart in the source and are kept apart here. Where only a bound is given, the exact number is not on record here.

Data set [1] concerns antibody core fucosylation (antibodies that did not bind to KLH, recovered from protein A column). The experiment in a line: In vivo antibody fucosylation after ip dosing (Example 1, Study 1), AOL lectin dot blot. To be noted: 150 mg/kg ip daily for 7 days; for fucosylation levels of the antibodies reduced, as compared to the untreated controls: non-KLH antibodies from protein A column, dot blot, on average. Here is the method:
Female BALB/c mice were immunized with Keyhole Limpet Hemocyanin (KLH) 30-60 days prior to starting this study. For the first study, mice were dosed ip with 150 mg/kg of alkynyl fucose (SGD-1887), alkynyl fucose peracetate (SGD-1890), 2-fluorofucose (SGD-2083), or 2-fluorofucose triacetate (SGD-2084) daily for 7 days or were untreated. On day 2, mice were also boosted with KLH. On the day after the last ip dose, mice were terminally bled and serum obtained. For the second study, mice were given 100 mM of 2-fluorofucose (SGD-2083) in their drinking water or given untreated water for 7 days, boosted with KLH, and continued with 100 mM 2-fluorofucose containing drinking water or untreated water for 7 more days before being terminally bled. Serum was then obtained. No mice died in either study. For both studies, serum was passed over a commercial anti-KLH affinity column to obtain KLH-specific polyclonal antibodies. The flow through from the anti-KLH affinity column was passed over a commercial protein A column to obtain the remaining antibodies.
Dot blots: 0.5 μg each of antibodies from untreated and treated animals, as well as standards of antibody cAC10 having known amounts of core fucosylation (0 to 100% fucose), were blotted onto a nitrocellulose membrane. The proteins levels were visualized by Ponceau staining. The blot was probed with biotinylated Aspergillus oryzae L-fucose-specific lectin (AOL) (which binds to fucosylated antibodies) and developed with streptavidin HRP and ECL. Gel loading (visible) and fucose signals (bioluminescence) were measured with an Alpha Innotech camera and quantitated with the machine software.

Data set [2] concerns antibody core fucosylation (CHO DG44 cell line producing humanized IgG1 anti-CD70 antibody h1F6). The experiment in a line: Inhibition of antibody core fucosylation in CHO DG44 cell culture producing h1F6. The class given is cell-based. The settings on record: day 5, CHO DG44 h1F6; for Inhibition at 50 μM: 50 μM fucose analog, read-out: Inhibition at 50 μM; for inhibition at 1000 µM: 1 mM fucose analog. The method, boiled down:
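CHO DG44 cells producing h1F6 were seeded at 7.5×10^5 cells/mL in medium with IGF, penicillin and streptomycin plus fucose analog at 50 μM or 1 mM, grown at 37 °C, 5% CO2 with shaking. On day 5 the antibody was purified from supernatant by protein A and eluted, then neutralized with Tris pH 8.0.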

Data set [3] concerns LP-1 cells (IgG heavy chain fucose signal). The experiment in a line: Fucosylation of LP-1 IgG, SDS-PAGE/Western blot with biotinylated AOL. The data set is classed as cell-based, human. To be noted: for AOL signal on IgG heavy chain, SDS-PAGE/Western blot: 50 μM, LP-1 cells, versus untreated cells; for inhibition of fucosylation of antibody (AOL signal): IgG isolated from LP-1 culture. The source says:
The ability of different fucose analogs to inhibit the fucosylation of IgG antibodies produced by human myeloma cells as well as the fucosylation of surface proteins of human cancer cell lines was investigated. In a first study, the ability of fucose analogs to inhibit fucosylation of IgG produced by the cell line LP-1, a human multiple myeloma cell line, was investigated. The antibodies produced by, and found in the culture medium of, untreated LP-1 cells were confirmed to be of the IgG type by western blot using anti-human IgG detection (data not shown). This was accomplished by growing 20 mL of LP-1 cells in a T-75 culture flask (250,000 cells/mL) for 5 days at 37° C. in a humidified atmosphere of 5% CO2 in IgG-depleted tissue culture media (90% RPMI with 10% IgG-depleted heat inactivated FBS). Harvest of the cells was by centrifugation (200×g, 4° C., 5 min), and the culture medium was collected. The medium was filtered through a 0.22 μm filter and then incubated with 1 mL of a 50% MabSelect™ protein A resin slurry in PBS at 4° C. with rotation overnight to capture the IgG. The resin slurry was allowed to settle and most of the medium was removed. The resin slurry was transferred with ˜0.5 mL media to two cellulose acetate filter spin cups and was centrifuged at 5000×g for 1 min. The resin bed was then washed 3 times with 0.5 mL PBS. The IgG was eluted with 700 μL of Pierce IgG elution buffer (into with 52 μL of 9 M Tris buffer, pH 9.5 to adjust the pH after elution). The resulting elution was transferred to a 10,000 MW cutoff centrifugal concentrator and the sample was concentrated to approximately 20 μL. 1 μL of the concentrated sample was loaded on an SDS polyacrylamide gel for separation followed by blotting onto nitrocellulose membrane. Staining of the blot for total protein was with Ponceau S and for identification of isotype with anti-human IgG antibody.
Antibody fucosylation can also be determined using a biotin-labeled Aspergillus oryzae L-fucose-specific lectin (AOL), which binds specifically to the α-1,6-linked fucose of the antibody. This method for fucose detection works for both blotted protein that has either been separated by SDS-PAGE or for protein that has been applied to nitrocellulose without separation. The […] signal generated using the AOL-biotin conjugate with streptavidin-HRP binding and ECL detection can be quantitated using an Alpha Innotech FlourChem® Q system.
The three analogs chosen were used at a concentration of 50 μM. These analyses compared the activity of 2-fluorofucose (SGD-2083), 2-fluorofucose peracetate (SGD-2084), and alkynyl fucose peracetate (SGD-1890) with antibody from untreated cells.

Regarding `C#CC(OC(C)=O)[C@@H](OC(C)=O)[C@@H](OC(C)=O)[C@@H](C=O)OC(C)=O` (some centres unmarked) [SGD-1890, 5-ethynylarabinose tetraacetate], in data set [1], the mortality result was “No mice died” and the “fucosylation levels of the antibodies reduced, as compared to the untreated controls” value was “about one third”. Further, in data set [2] (120 h), the Inhibition (as a rule, the relative decrease from the control value, in per cent) at 50 μM is greater than 80% and the inhibition (usually the percentage by which the read-out fell short of the control) at 1000 µM is greater than 80%. Further, in data set [3], the “AOL signal on IgG heavy chain, SDS-PAGE/Western blot” value is “did not show reactivity with the biotinylated AOL” and the “inhibition of fucosylation of antibody (AOL signal)” value is “did”.
As for `C[C@H](O)[C@@H](O)[C@@H](O)[C@H](F)C=O` [SGD-2083, 2-fluoro-2-deoxy fucose], in data set [1], the “fucosylation levels of the antibodies reduced, as compared to the untreated controls” value is “about one third”. In data set [2] (CHO-DG44, 120 h), the Inhibition at 50 μM was greater than 80% and the inhibition at 1000 µM is greater than 80%. Also, in data set [3], the “AOL signal on IgG heavy chain, SDS-PAGE/Western blot” value is reported as “no apparent change in the AOL signal” and the “inhibition of fucosylation of antibody (AOL signal)” value was “did not inhibit fucosylation of antibody”.
